Read-outs that look alike come from different tables or passages of the source.
Legend:
MDA-MB-453 cells = experiment: Anti-tumor effect in MDA-MB-453 cell cancer-bearing mouse; format: in vivo; conditions: oral, once a day for 15 days, Balb/c nude mouse
Experimental: 3×10^6 cells of MDA-MB-453 cells which were suspended with PBS were subcutaneously injected to be planted in the back of a 5 to 6 weeks old male Balb/c nude mouse (provided by Charles River Laboratories, Japan). 10 days after planting, the test compound was administered. The test was carried out on respective five mice of the solvent group and the test compound administered group, and 6% aqueous cyclodextrin solution was administered to the solvent group, and a mixture of 6% aqueous cyclodextrin solution and the test compound (1 or 3 mg/kg) was orally administered to the test compound administered group. Administration was carried out once a day for 15 days, and body weight and tumor size were measured approximately every other day. The following equation was used to calculate the tumor volume.

[1] = test system: human PIK3CA mutation-positive breast cancer cell line MDA-MB-453 cells; experiment: Scaffold independent cell proliferation inhibitory effect, MDA-MB-453 cells; format: cell-based; conditions: non-adhesive plate, 4 days, CellTiter-Glo, read-out: IC50 (cell proliferation inhibition)
Experimental: The effect on proliferation of cancer cells of the test compound was evaluated.
Measurement (colony method) of the scaffold independent cell proliferation is known as a system in which the anti-cancer effect of the test compound is examined. As a method for measuring cell-non-adhesive proliferation substituting the colony method, there is a method of using a non-adhesive plate as follows.
Thereafter, the cells were cultured for 4 days at 37° C. in the absence of CO2, and a cytometric reagent (CellTiter-Glo Luminescent Cell Viability assay manufactured by Promega Corporation) was added. The resultant product was stirred for 30 minutes, and then measurement was carried out using a luminescence measurement apparatus (ARVO manufactured by Perkin Elmer Inc.).

[2] = molecular target: human mitochondrial Complex I (Homo sapiens, UniProt O75251+O75306+P03886); format: biochemical
Experimental: Mitochondria was extracted from MDA-MB-453 tumor, and the Complex I inhibitory activity of the test compound was evaluated.
Human PIK3CA mutation-positive breast cancer cell line MDA-MB-453 cells were subcutaneously implanted into nude mice, MDA-MB-453 tumor was excised, a mitochondria extraction solution (0.25 M Sucrose, 2 mM EDTA, 10 mM Tris/HCl pH 7.5) of 9 times of tumor weight was added thereto, and crushing was carried out thereon. The reaction mixture was centrifuged at 600×g and 4° C. for 10 minutes to obtain a supernatant, and the supernatant was centrifuged at 14000×g and 4° C. for 10 minutes, thereby obtaining a pellet. The pellet was suspended in 10 mM Tris/HCl pH 7.5 of 5 times of the excised tumor weight, thereby obtaining a human mitochondrial suspension.
Next, 25 μl of the human mitochondrial suspension per 1 ml of Complex I activity measurement solution (200 mM potassium phosphate pH 7.6, 0.35% Bovine Serum Albumin (BSA), 60 μM 2,6-dichlorophenol-indophenol, 70 μM decylubiquinone, 1 μM antimycin) was added. After dispensed into a 96 or 384-well plate, a test compound (from 10000 nM to 0.3 nM) and DMSO which is a solvent for the test compound as a negative control were added such that a final concentration of Rotenone which is a Complex I inhibitor as a positive control becomes 1 μM. Further, NADH was added so as to have a final concentration of 0.2 mM, and a change in absorbance at a wavelength of 600 nm using SpectraMax (manufactured by Molecular Devices LLC) set to 37° C. in advance was measured. […] Moreover, in the Table, Ex indicates Example No. (the same shall apply hereinafter.).

AMPK = experiment: Evaluation of AMPK activation effect (phosphorylation of ACC Ser79, Cell ELISA in MDA-MB-453 cells); format: cell-based, human; conditions: 2 hours
Experimental: By measuring phosphorylation of 79th serine (Ser79) of Acetyl-CoA Carboxylase (ACC) which is a substrate of AMPK with Cell ELISA, the AMPK activation effect by the test compound was evaluated.
In order to make MDA-MB-453 cell become 15000 cells per well, each 36 μl was seeded in Leibovitz's L-15 medium including 10% fetal bovine serum (manufactured by Life Technologies Corp.) in a 384 well plate, followed by culturing at 37° C. overnight in the absence of CO2. […] After the incubation, 20 μl of a 40% glyoxal solution (Nacalai Tesque) was added to each well, and then cells were fixed by leaving to stand at room temperature for 30 minutes. Thereafter, the supernatant was removed by centrifuging the plate, and then 0.1% Triton X-100-containing Phosphate-Buffered Saline (PBS) was added to each well by 20 followed by incubating at room temperature for 10 minutes. The 0.1% Triton X-100-containing PBS was removed by centrifuging for 8 seconds at 800 rpm (all solution removal operation by centrifuge described below were carried out under the same conditions), and then a blocking solution (ODYSSEY Blocking Buffer; manufactured by Li—COR Biosciences) was added to each well by 20 μl, followed by leaving to stand at room temperature for 1 hour. The blocking solution was removed by centrifuging, with the exception of the blocking solution by centrifugation, and then a blocking solution which was diluted such that the amount of phosphorylation antibody (manufactured by Cell Signaling Technology, Inc) of ACC Ser79 as a primary antibody is 1/500 was added to each well by 10 followed by leaving to stand at 4° C. overnight. The following day, the reaction liquid was removed by centrifuging the plate, and then 0.05% Tween-20-containing Tris-Buffered Saline (TBS) (manufacture by Thermo Scientific Inc.; used in 1× in which 20×TBS Tween-20 was diluted with ion-exchange water) was added to each well by 25 followed by washing each well by centrifugal removal. The washing of each well was repeated for a total of 3 times. After washing, a blocking solution which was diluted such that the amount of IRDye 800CW Goat anti-Rabbit IgG (manufactured by Li—CoR Biosciences) as a secondary antibody is 1/1000 was added to each well by 10 μl, followed by leaving to stand at room temperature for 1 hour. After the secondary antibody reaction, the reaction liquid was removed by centrifuging the plate, and then each well was washed three times with 0.05% Tween-20-containing TBS in the same manner as after the primary antibody reaction. After the washing solution was removed, without change, the plate was air-dried at room temperature for 3 hours or longer and signals were measured by Aerius (manufactured by Li—CoR Biosciences).

[3] = mitochondria from MDA-MB-453 tumor, absorbance 600 nm, 37° C.; read-out: IC50 (Complex I inhibition)

Sequence of human mitochondrial Complex I (O75251 39-213 limits assumed): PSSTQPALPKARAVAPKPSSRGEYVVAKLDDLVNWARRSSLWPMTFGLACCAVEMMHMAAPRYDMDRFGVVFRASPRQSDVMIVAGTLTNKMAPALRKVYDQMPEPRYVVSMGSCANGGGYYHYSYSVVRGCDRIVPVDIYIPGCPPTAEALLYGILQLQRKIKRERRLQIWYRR
Sequence of human mitochondrial Complex I (O75306 34-463 limits assumed): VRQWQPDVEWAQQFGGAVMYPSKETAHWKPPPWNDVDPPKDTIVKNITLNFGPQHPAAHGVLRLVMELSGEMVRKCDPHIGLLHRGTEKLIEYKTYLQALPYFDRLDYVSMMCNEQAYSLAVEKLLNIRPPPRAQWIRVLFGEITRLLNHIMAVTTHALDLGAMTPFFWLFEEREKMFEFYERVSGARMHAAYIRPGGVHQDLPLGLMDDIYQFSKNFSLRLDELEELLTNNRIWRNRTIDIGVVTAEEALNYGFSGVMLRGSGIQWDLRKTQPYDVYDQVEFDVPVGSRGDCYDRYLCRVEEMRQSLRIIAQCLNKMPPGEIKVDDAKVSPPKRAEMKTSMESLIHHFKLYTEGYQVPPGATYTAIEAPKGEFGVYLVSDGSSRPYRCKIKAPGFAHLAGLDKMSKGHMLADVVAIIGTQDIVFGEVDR
Sequence of human mitochondrial Complex I (P03886 whole entry): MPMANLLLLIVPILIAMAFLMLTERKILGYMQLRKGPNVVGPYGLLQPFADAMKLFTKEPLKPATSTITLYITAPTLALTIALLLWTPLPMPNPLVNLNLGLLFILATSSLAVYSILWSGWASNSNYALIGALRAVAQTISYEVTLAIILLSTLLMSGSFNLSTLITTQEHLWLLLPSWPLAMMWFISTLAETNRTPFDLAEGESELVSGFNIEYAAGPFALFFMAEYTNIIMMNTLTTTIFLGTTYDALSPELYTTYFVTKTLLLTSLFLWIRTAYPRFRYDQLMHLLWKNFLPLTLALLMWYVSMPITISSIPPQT

IC50 ([1]; Homo sapiens, 96 h) | EC50 (AMPK) | Structure (SMILES) | IC50 [2, 3] | other results
6.2 nM | 2.8 nM | CCOc1cnc(CN2CCC(c3ccc4c(c3)cc(C(=O)N3CCN(Cc5ccc(C#N)cc5)CC3)n4C)CC2)cn1 [Example 66] | 120 nM | Anti-tumor effect, regression rate (MDA-MB-453 cells; 1 mg/kg): 91% regression
4 nM | 14 nM | COc1cnc(CN2CCC(c3ccn4nc(C(=O)N5CCN(Cc6ccc(C(F)(F)F)cc6)CC5)cc4c3)CC2)cn1 [Example 50] | – | –
– | 3.3 nM | COc1cnc(CN2CCC(c3ccc4c(c3)cc(C(=O)N3CCN(Cc5ccc(C#N)cc5)CC3)n4C)CC2)cn1 [Ex 79] | 120 nM | Anti-tumor effect, regression rate (MDA-MB-453 cells; 1 mg/kg): 43% regression; IC50 [1]: 7.8 nM
8.9 nM | 10 nM | COc1ccc(CN2CCC(c3ccc4nc(C(=O)N5CCN(Cc6ccc7c(c6)OC(F)(F)O7)CC5)[nH]c4c3)CC2)cn1 [Example 37] | 29 nM | –
– | – | COc1ccc(CN2CCC(c3ccc4[nH]c(C(=O)N5CCN(Cc6ccc(C(F)(F)F)cc6)CC5)nc4c3)CC2)cn1 [Example 1, (5-{1-[(6-methoxypyridin-3-yl)methyl]piperidin-4-yl}-1H-benzimidazol-2-yl){4-[4-(trifluoromethyl)benzyl]piperazin-1-yl}methanone ditosylate] | – | Anti-tumor effect, regression rate (MDA-MB-453 cells; 3 mg/kg): 26% regression
11 nM | 5.1 nM | COc1ccc(CN2CCC(c3ccn4cc(C(=O)N5CCN(Cc6ccc(C(F)(F)F)cc6)CC5)nc4c3)CC2)cn1 [Example 36, (7-{1-[(6-methoxypyridin-3-yl)methyl]piperidin-4-yl}imidazo[1,2-a]pyridin-2-yl){4-[4-(trifluoromethyl)benzyl]piperazin-1-yl}methanone ditosylate] | 55 nM | Anti-tumor effect, regression rate (MDA-MB-453 cells; 3 mg/kg): 10% regression
– | 1.8 nM | COc1ccc(CN2CCC(n3cc4cc(C(=O)N5CCN(Cc6ccc(C(F)(F)F)cc6)CC5)ccc4n3)CC2)cn1 [Example 57] | – | –
3.2 nM | – | CCOc1cnc(CN2CCC(c3ccc4cc(C(=O)N5CCN(Cc6ccc(C#N)cc6)CC5)n(C)c4c3)CC2)cn1 [Example 69] | 22 nM | Anti-tumor effect, regression rate (MDA-MB-453 cells; 1 mg/kg): 87% regression
0.55 nM | 0.86 nM | CCOc1cnc(CN2CCC(n3cc4cc(C(=O)N5CCN(Cc6ccc(C(F)(F)F)cc6)CC5)ccc4n3)CC2)cn1 [Example 58] | – | –
2.8 nM | 6.5 nM | COc1ccc(CN2CCC(c3ccn4nc(C(=O)N5CCN(Cc6ccc(C(F)(F)F)cc6)CC5)cc4c3)CC2)cn1 [Example 49] | 18 nM | –
7.6 nM | 34 nM | COc1ccc(CN2CCC(c3ccc4nc(C(=O)N5CCN(Cc6ccc(C(F)(F)F)cc6)CC5)[nH]c4c3)CC2)cc1 [Example 14] | – | –
4.2 nM | 5.2 nM | COc1ccc(CN2CCC(c3cc4cc(C(=O)N5CCN(Cc6ccc(C(F)(F)F)cc6)CC5)n(C)c4cn3)CC2)cn1 [Example 44] | 87 nM | –
– | 3 nM | COc1ccc(CN2CCC(c3ccc4nc(C(=O)N5CCN(Cc6ccc(C(F)(F)F)cc6)CC5)n(C)c4c3)CC2)cn1 [Example 18] | – | –
– | 3.6 nM | COc1ccc(CN2CCC(c3ccc4nc(C(=O)N5CCN(Cc6ccc(C(F)(F)F)cc6)CC5)cn4c3)CC2)cn1 [Example 35] | – | –
8.1 nM | 13 nM | COc1ccc(CN2CCC(c3ccc4nc(C(=O)N5CCN(Cc6ccc(C(F)(F)F)cc6F)CC5)[nH]c4c3)CC2)cn1 [Example 38] | 59 nM | –
8.5 nM | 10 nM | COc1ccc(CN2CCC(c3ccc4c(c3)nc(C(=O)N3CCN(Cc5ccc(C(F)(F)F)cc5)CC3)n4C)CC2)cn1 [Example 19] | – | –
40 nM | 19 nM | COc1ccc(CN2CCC(c3ccc4nc(C(=O)N5CCN(Cc6ccc(C#N)cc6)CC5)[nH]c4c3)CC2)cn1 [Example 23] | 160 nM | –

Structure (SMILES) | IC50 ([1]; Homo sapiens, 96 h) | EC50 (AMPK) | IC50 [2, 3] | other results
COc1cnc(CN2CCC(c3ccc4[nH]c(C(=O)N5CCN(Cc6ccc(C(F)(F)F)cc6)CC5)nc4c3)CC2)cn1 [Example 7, (5-{1-[(5-methoxypyrazin-2-yl)methyl]piperidin-4-yl}-1H-benzimidazol-2-yl){4-[4-(trifluoromethyl)benzyl]piperazin-1-yl}methanone ditosylate] | 12 nM | – | 75 nM | Anti-tumor effect, regression rate (MDA-MB-453 cells; 3 mg/kg): 49% regression
Cc1cnc(CN2CCC(c3ccc4nc(C(=O)N5CCN(Cc6ccc(C(F)(F)F)cc6)CC5)[nH]c4c3)CC2)cn1.Cl.Cl.Cl [Example 8, (6-{1-[(5-methylpyrazin-2-yl)methyl]piperidin-4-yl}-1H-benzimidazol-2-yl){4-[4-(trifluoromethyl)benzyl]piperazin-1-yl}methanone trihydrochloride] | 26 nM | 13 nM | – | Anti-tumor effect, inhibition rate (MDA-MB-453 cells; 3 mg/kg): 88% inhibition; IC50 ([2]; read-out: IC50 (Complex I inhibition); mitochondria from MDA-MB-453 tumor, absorbance 600 nm, 37° C.): 83 nM

Reference: patent US9428501B2, “Bicyclic nitrogen-containing aromatic heterocyclic amide compound” (ASTELLAS PHARMA INC., priority 2013, dated 2016)
